What all share (type): cell-based, human
Assay [1] relates to iPSCs (TC1133); OCT4, TRA-1-60. In words: Expression of pluripotency-related genes at end of passages in long-term suspension culture (Example 1). The method, then:
(§1) • 13 ml with 2.5×10^5 cells/ml per vessel in passage 0; 5×10^5 cells/ml per vessel at all other passages. • Medium Change: 62% Exchange per day • Cells: TC1133, NINDS • Culture conditions: 37° C., pH 7.4, dO 23.8%, 300 rpm downstirr.
• 1. Y27632 treatment of iPSC aggregates at a final concentration of 10 μM two hours before dissociation. • 2. Two times washing with Versene: Stop of stirring for two minutes, removal of medium to 2 mL without disturbing sedimented aggregates, addition of Versene to 10 mL, starting the stirring (300 rpm, downwards) for 10 seconds. • 3. Removal of medium to 2 mL in the same way as described in the washing steps and addition of Versene to 5 mL. • 4. Stirring at 600 rpm for up to 15 min until dissociation is sufficient. […] Reduce stirring to 300 rpm. • 6. Cell count. • 7. Transfer a volume of cell suspension into a fresh ambr15 vessel resulting in a seeding concentration of 2-5×10^5 cells/mL, thereby diluting the cell dissociation reagent by addition of an excess volume (at least 5-fold) of iPS-Brew […]

Assay [2] concerns iPSCs (TC1133); OCT4, NANOG, TRA-1-60. As to the kind of experiment: Effect of ROCKi pretreatment (4 h) on expression of pluripotency-related markers in iPSCs (Example 4). The procedure:
as §1
• 1. Y27632 treatment of iPSC aggregates at a final concentration of 10 μM two hours before dissociation. • 2. Two times washing with Versene: Stop of stirring for two minutes, removal of medium to 2 mL without disturbing sedimented aggregates, addition of Versene to 10 mL, starting the stirring (300 rpm, downwards) for 10 seconds. • 3. Removal of medium to 2 mL in the same way as described in the washing steps and addition of Versene to 5 mL. • 4. Stirring at 600 rpm for up to 15 min until dissociation is sufficient. In progress controls have to be observed microscopically to assess the right degree of dissociation. • 5. Reduce stirring to 300 rpm. • 6. Cell count. • 7. Transfer a volume of cell suspension into a fresh ambr15 vessel resulting in a seeding concentration of 2-5×10^5 cells/mL, thereby diluting the cell dissociation reagent by addition of an excess volume (at least 5-fold) of iPS-Brew
(§2) • ambr15 cell culture 24 Disposable bioreactors, Low temp, no sparge, Part number: 001-2B81 • StemMACS iPS-Brew XF, Basal Medium, Order no.: 130-107-086 • StemMACS™ iPS-Brew XF 50× Supplement; Order no.: 130-107-087 • ROCKi Y27632; Stemolecule • Versene Solution, Cat No.: 15040-033 • Ambr15 bioreactor, Sartorius Stedim • Nucleocounter NC-200 Type 900-0201 • Cellavista Cell Imager • Flow Cytometer: BD LSR II Special Order System
The aim of this example was to analyze the effects of ROCKi pretreatment on passaging of iPSCs in suspension. Example 4 was performed like Examples 1-3 except that the ROCKi pretreatment was performed for 4 h.

For assay [3], the system named is iPSCs (TC1133). In words: Long-term suspension culture of iPSCs in ambr15 bioreactor with automated passaging, ROCKi vs TZV (Example 1): aggregate size and expansion. Particulars: for aggregate size: end of all passages except passage 0, ROCK inhibitor used during passaging. The procedure:
as §1
• 1. Y27632 treatment of iPSC aggregates at a final concentration of 10 μM two hours before dissociation. • 2. Two times washing with Versene: Stop of stirring for two minutes, removal of medium to 2 mL without disturbing sedimented aggregates, addition of Versene to 10 mL, starting the stirring (300 rpm, downwards) for 10 seconds. • 3. Removal of medium to 2 mL in the same way as described in the washing steps and addition of Versene to 5 mL. • 4. Stirring at 600 rpm for up to 15 min until dissociation is sufficient. […] Reduce stirring to 300 rpm. • 6. Cell count. • 7. Transfer a volume of cell suspension into a fresh ambr15 vessel resulting in a seeding concentration of 2-5×10^5 cells/mL, thereby diluting the cell dissociation reagent by addition of an excess volume (at least 5-fold) of iPS-Brew
as §2

In assay [4] the test system is iPSCs (TC1133). In words: Effect of ROCKi pretreatment (4 h) on passaging of iPSCs in suspension (Example 4): aggregate size and expansion rate. The method, then:
as §1
• 1. […] Two times washing with Versene: Stop of stirring for two minutes, removal of medium to 2 mL without disturbing sedimented aggregates, addition of Versene to 10 mL, starting the stirring (300 rpm, downwards) for 10 seconds. • 3. Removal of medium to 2 mL in the same way as described in the washing steps and addition of Versene to 5 mL. • 4. Stirring at 600 rpm for up to 15 min until dissociation is sufficient. […] Reduce stirring to 300 rpm. • 6. Cell count. • 7. Transfer a volume of cell suspension into a fresh ambr15 vessel resulting in a seeding concentration of 2-5×10^5 cells/mL, thereby diluting the cell dissociation reagent by addition of an excess volume (at least 5-fold) of iPS-Brew
as §2
The aim of this example was to analyze the effects of ROCKi pretreatment on passaging of iPSCs in suspension.

Setting [5] is: day 3 after passaging, ROCKi pretreated.
Where [6] appears, read: day 4 of passage 0 (day of passaging, cells to be pretreated).
[7] abbreviates: day 5 after passaging, ROCKi pretreated.
Where [8] appears, read: day 3 after passaging, with ROCKi pretreatment.

Consider `C[C@@H](N)[C@H]1CC[C@H](C(=O)Nc2ccncc2)CC1` [ROCKi, Y27632], for which, in assay [1] (end of every analyzed passage), the “expression of pluripotency-related genes (OCT4, TRA-1-60)” value was “high”. Besides, the NANOG expression came to 93.6% in assay [2] (setting [5]), 96.9% in assay [2] (setting [6]) and 81.8% in assay [2] (setting [7]). Also, the results for the OCT4 expression in assay [2] (setting [5]), in assay [2] (setting [6]) and in assay [2] (setting [7]) were 95.9%, 97.8% and 94.4%, respectively. The TRA-1-60 expression in assay [2] (setting [5]) is 99.1%; in assay [2] (setting [6]), 99.3%; in assay [2] (setting [7]) it was 98.7%. Besides, in the assay with iPSCs (TC1133) [3] (after 43 days, 8 passages, calculated from starting cell numbers and splitting ratios), the accumulated fold increase was 9.6×10^6. For the same molecule, the aggregate size entry in the assay with iPSCs (TC1133) [3] was “about 200 μm”; in the assay on iPSCs (TC1133) [4] (setting [8]), 162.06±53 μm; in the assay on iPSCs (TC1133) [4] (setting [6]), 197.41±75 μm. Also, the expansion rate in the assay with iPSCs (TC1133) [4] (setting [8]) stood at 3.14 fold increase; in the assay on iPSCs (TC1133) [4] (setting [6]), 12.34 fold increase; in the assay with iPSCs (TC1133) [4] (day 5 after passaging, with ROCKi pretreatment) it was 9.2 fold increase.
In the case of `O=C(NCc1ccccc1)c1csc(Nc2ccncn2)n1` [TZV, thiazovivin], the “expression of pluripotency-related genes” value in assay [1] (end of passage 0, 2 and 3) is “high”. Further, the aggregate size entry in the assay with iPSCs (TC1133) [3] is “about 200 μm”. The “expansion rates of iPSCs relative to ROCKi treated cells” value with iPSCs (TC1133) [3] (iPSCs passaged with TZV compared with ROCKi) is “comparable”.

The record behind these values is patent publication US20230059873A1, “EXPANSION OF STEM CELLS IN SUSPENSION IN A BIOREACTOR” (REPAIRON GMBH, priority 2019, published 2023).
